Measured values published in patent publication US6497872B1, “Neural transplantation using proliferated multipotent neural stem cells and their progeny” (NeuroSpheres Holdings Ltd., priority 1991, dated 2002).

How the values were obtained:
[1] = tested on: constitutively proliferating subependymal cells; assay: 3H-thymidine kill of constitutively proliferating subependymal cells, BrdU count (Example 24); type: in vivo, mouse; set-up: concentration or dose not given beside the values
Method: Adult male CD1 mice received a series of intraperitoneal injections of 3H-thymidine (0.8 ml per injection, specific activity 45-55 mCi/mmole, ICN Biomedical) on day 0 (3 injections, 1 every 4 hours) in order to kill the constitutively proliferating subependymal cells. On day 0.5, 1, 2, 4, 6, 8 or 12, animals received 2 BrdU injections 1 hour apart (see Example 25) and were sacrificed 0.5 hour after the last injection. In a second group of animals, 3H-thymidine injections were given on day 0 (3 injections, 1 every 4 hours), followed by an identical series of injections on day 2 or 4. Animals were allowed to survive for 8 days following the second series of injections ([…] and 12 respectively) at which time they received 2 injections of BrdU and were sacrificed 0.5 hours later. Animals were sacrificed and the brains were removed and processed as described in Example 25.

[2] = tested on: relatively quiescent neural stem cells in subependyma; assay: 3H-thymidine kill, number of neurospheres formed in vitro (Example 26); type: in vivo, mouse
Method: As detailed in Example 26 below, an experiment was performed to determine whether the in vitro stem cell is derived from the constitutively proliferating population or from the quiescent population. Animals were treated in one of the following ways: […] Adult male CD1 mice were divided into 4 groups. Group A animals received a series of 3H-thymidine injections on day 0 (3 injections, 1 every 4 hours). Animals in groups B and C received a series of 3H-thymidine injections on day 0 followed by a second series of injections on day 2 or 4. Group D animals received injections of physiological saline instead of 3H-thymidine over the same time course as group A. Animals from all groups were sacrificed by cervical dislocation 16-20 hours following the last series of injections. Brains were removed and neural tissue obtained from the subependyma surrounding the lateral ventricles in the forebrain was dissociated and the neural cells cultured as described in Example 5. At 6 and 8 days in vitro, the total number of spheres was counted in each of the 35 mm wells.

[3] = tested on: Primary striatal cells; assay: Striatum-derived neurosphere proliferation in response to proliferative and regulatory factors (Example 43, Paradigm 1); type: cell-based, mouse; settings: for Numbers of neurospheres generated (#): decrease (−) or increase (+) per well compared with absence of the REGULATORY FACTOR: 10-12 days; for numbers of neurospheres generated: in all of the proliferative factors or combinations tested
Method: Paradigm 1: Primary striatal cells prepared as outlined in Example 1 were suspended in Complete Medium, without growth factors, plated in 96 well plates (Nunclon) and incubated as described in Example 4. Following a one hour incubation period, a specific proliferative factor, or a combination of proliferative factors including EGF, or bFGF (recombinant human bFGF: R & D Systems), or a combination of EGF and bFGF, or EGF plus FGF plus heparan sulfate (Sigma), or bFGF plus heparan sulfate made up in Complete Medium at a concentration of 20 ng/ml for each of the growth factors and 2 μg/ml for heparan sulfate), was added to each well of the plate.
Retinoic acid (Sigma) was added at a concentration of 10^−6 M. 10 μl of one of these regulatory factor-containing solutions was added to each proliferative factor-containing well of the 96 well plates. Control wells, containing only proliferative factors, were also prepared. […]
IL-2, IL-6, IL-8, MIP-1∂, MIP-1β, MIP-2, TNFα and EGF additions were repeated every second day, CNTF which was added each day and retinoic acid, NGF and PDGF were added only once, at the beginning of the experiment. The cells were incubated for a period of 10-12 days. The number of neurospheres in each well was counted and the resulting counts tabulated using Cricket Graph III. Other relevant information regarding sphere size and shape were also noted.

[4] = tested on: EGF-generated neurospheres; assay: Effect of growth factors on neurosphere differentiation, immunocytochemistry (Example 8); type: cell-based, mouse
Method: Six to 8 days after the first passage, the neurospheres were removed and centrifuged at 400 r.p.m. The EGF-containing supernatant was removed and the pellet suspended in EGF-free complete medium containing 1% FBS. Neurospheres (approximately 0.5-1.0×10^6 cells/well) were plated on poly-L-ornithine-coated (15 μg/ml) glass coverslips in 24 well Nuclon (1.0 ml/well) culture dishes. After 24 hours in culture, the coverslips were transferred to 12 well (Costar) culture dishes containing complete medium containing 0.5% FBS. The medium was changed every 4-7 days. This differentiation procedure is referred to as the “Rapid Differentiation Paradigm” or RDP.
Six to 8 days after the first passage, the neurospheres were removed and centrifuged at 400 r.p.m. The EGF-containing media was removed and the pellet was suspended in EGF-free complete medium containing 1% FBS. The neurospheres were mechanically dissociated into single cells with a fire-polished Pasteur pipette and centrifuged at 800 r.p.m. for 5 minutes. Between 0.5×10^6 and 1.0×10^6 cells were plated on poly-L-ornithine-coated (15 μg/ml) glass coverslips in 24 well Nuclon (1.0 ml/well) culture dishes. The EGF-free culture medium containing 1% FBS was changed every 4-7 days.
Neurospheres were washed free of EGF by serial transfers through changes of EGF-free medium. A single neurosphere was plated onto poly-L-ornithine-coated (15 μg/ml) glass coverslips in a 24-well plate. The culture medium used was complete medium with or without I % FBS. The medium was changed every 4-7 days.
Neurospheres were washed free of EGF by serial transfers through changes of EGF-free medium. A single neurosphere was mechanically dissociated in a 0.5 ml Eppendorf centrifuge tube and all the cells were plated onto a 35 mm culture dish. Complete medium was used with or without 1% FBS.
The effects of CNTF, FGF-2, BDNF, and retinoic acid on neurosphere differentiation were tested using the differentiation paradigms set forth in Example 7.
The effect of CNTF was assayed in paradigms 1 and 3. For both paradigms, CNTF was added either at the beginning of the experiment at a concentration of 10 ng/ml or daily at a concentration of 1 ng/ml.
Three different antibodies directed against 04, galactocerebroside (GalC) and MBP were used to study the effect of CNTF on the oligodendrocytes of paradigm 1. CNTF had no effect on the number of 04(+) cells, but there was an increase in the number of GalC(+) and MBP(+) cells compared with the control. Thus it appears that CNTF plays a role in the maturation of oligodendrocytes.
The effect of FGF-2 was tested using paradigms 2 and 4. In paradigm 2, 20 ng/ml of FGF-2 was added at the beginning of the experiment and cells were stained 7 days later. FGF-2 increased the number of GFAP(+) cells and the number of NSE(+) cells.
In paradigm 4, 20 ng/ml of FGF-2 was added at the beginning of the experiment and assayed 7-10 days later. […] It induced two different cell types to divide, neuroblasts and bipotential progenitor cells. The neuroblast produced, on average, 6 neurons while the bipotential cell produced approximately 6 neurons and a number of astrocytes.

[5] = PROLIFERATIVE FACTOR EGF 20 ng/ml
[6] = PROLIFERATIVE FACTOR bFGF 20 ng/ml
[7] = PROLIFERATIVE FACTORS EGF + bFGF + Heparan
[8] = PROLIFERATIVE FACTORS EGF + bFGF
[9] = PROLIFERATIVE FACTORS bFGF + Heparan
[10] = paradigm 1, CNTF 10 ng/ml at beginning or 1 ng/ml daily

Row | Molecule | Numbers of neurospheres generated (#): decrease (−) or increase (+) per well compared with absence of the REGULATORY FACTOR [3, 5] [%] | Size of neurospheres compared to PROLIFERATIVE FACTORS alone ([3]; PROLIFERATIVE FACTOR bFGF) | Numbers of neurospheres generated (#): decrease (−) or increase (+) per well compared with absence of the REGULATORY FACTOR [3, 6] [%] | Numbers of neurospheres generated (#): decrease (−) or increase (+) per well compared with absence of the REGULATORY FACTOR [3, 7] [%] | Numbers of neurospheres generated (#): decrease (−) or increase (+) per well compared with absence of the REGULATORY FACTOR [3, 8] [%] | Numbers of neurospheres generated (#): decrease (−) or increase (+) per well compared with absence of the REGULATORY FACTOR [3, 9] [%] | numbers of neurospheres generated [3] | other results
1 | Cc1cn([C@H]2C[C@H](O)[C@@H](CO)O2)c(=O)[nH]c1=O [3H-thymidine] |  |  |  |  |  |  |  | proliferating subependymal population relative to controls ([1]; one kill on day 0, 8 days): 85%; proliferating subependymal population relative to controls ([1]; one kill on day 0, 8 days, listed as radioactive thymidine): back to control levels; proliferating subependymal population relative to controls ([1]; one kill on day 0, day 1 post-kill): 10%; proliferating subependymal population relative to controls ([1]; second kill on day 2, 8 days later): 45%; proliferating subependymal population relative to controls ([1]; second kill on day 2, 31 days after the second kill): 63%; proliferating subependymal population relative to controls ([1]; second kill on day 4, 8 days later): return to control values; proliferating subependymal population relative to controls ([1]; second kill on day 4, 8 days later, listed as radioactive thymidine): 85%; Number of Neurospheres produced in vitro relative to control ([2]; high doses on day 0): the same number of spheres; Number of Neurospheres produced in vitro relative to control ([2]; high doses on day 0, listed as radioactive thymidine): 100%; Number of Neurospheres produced in vitro relative to control ([2]; high doses on day 0 and day 2): 45%; Number of Neurospheres produced in vitro relative to control ([2]; high doses on day 0 and day 2, listed as radioactive thymidine): 45%; Number of Neurospheres produced in vitro relative to control ([2]; high doses on day 0 and day 4): not significantly different from control values; Number of Neurospheres produced in vitro relative to control ([2]; high doses on day 0 and day 4, listed as radioactive thymidine): 85%
2 | CC1=C(/C=C/C(C)=C/C=C/C(C)=C/C(=O)O)C(C)(C)CCC1 [Retinoic Acid, retinoic acid, reference compound] | −8 | − | −61 | −45 | −31 | −65 |  | 
3 | PDGF | −1.5 |  | −4 | −27 | −26 | −10 | significantly reduced | 
4 | TNFα | −17 |  | −17 | −37 | −41 | −21 | significantly reduced | 
5 | heparan sulfate [reference compound] | 0 | ++ | 0 |  | 0 |  |  | increase in size of the neurospheres formed in response to bFGF ([3]; added to bFGF): about 400%; size of neurospheres relative to those which occur in response to EGF ([3]; heparan sulfate 2 μg/ml added to bFGF generated spheres): approximately 70%
6 | CNTF: ciliary neurotrophic factor (protein, UniProt P26441 1-200, looked up) Ciliary neurotrophic factor: MAFTEHSPLTPHRRDLCSRSIWLARKIRSDLTALTESYVKHQGLNKNINLDSADGMPVASTDQWSELTEAERLQENLQAYRTFHVLLARLLEDQQVHFTPTEGDFHQAIHTLLLQVAAFAYQIEELMILLEYKIPRNEADGMPINVGDGGLFEKKLWGLKVLQELSQWTVRSIHDLRFISSHQTGIPARGSHYIANNKKM | −23 |  | −77 | −84 | −81 | −81 | significantly reduced | Size of neurospheres compared to PROLIFERATIVE FACTORS alone ([3]; PROLIFERATIVE FACTOR EGF): −; Size of neurospheres compared to PROLIFERATIVE FACTORS alone [3, 9]: −; number of GalC(+) cells compared with control ([4]; paradigm 1): increase; number of MBP(+) cells compared with control ([4]; paradigm 1): increase; number of O4(+) cells ([4]; paradigm 1): no effect; number of NSE-immunoreactive cells [4, 10]: increased; number of tau-1-immunoreactive cells [4, 10]: increased; number of cells containing GABA and substance P ([4]; paradigm 1, preliminary testing): no increase; proliferation of flat, protoplasmic astrocytes ([4]; paradigm 1 without serum): increase; number of NSE(+) cells ([4]; paradigm 3, CNTF): increase
